Experimental data: patent publication US20050282824A1, “Substituted pyrimidines as inhibitors of bacterial type III protein secretion systems” (priority 2004, published 2005)

Key:
[1] = test system: Type III protein secretion of ExoU by P. aeruginosa PA103; assay: Tertiary assay: Type III-dependent secretion of ExoU by P. aeruginosa PA103; format: cell-based; conditions: Pseudomonas aeruginosa, read-out: ExoU IC50(uM)
Source text: Tertiary assay: inhibition of Type III protein secretion of effectors from a Pseudomonas aeruginosa system. Type III protein secretion is used by P. aeruginosa to secrete several essential virulence determinants. One effector of the type III protein secretion system of P. aeruginosa PA 103 is the virulence determinants ExoU.
The amount of Type III-dependent secretion of ExoU by P. aeruginosa PA103 can be determined in a cell-based assay by quantification of the 73.9 kDa ExoU protein secreted into the extracellular medium. Such quantitation can be achieved by growing strain PA 103 in a deferrated medium in the presence of nitrilotriacetic acid (an inducer of Type III protein secretion in P. aeruginosa) and either in the presence or absence of putative inhibitors. After a prolonged growth period, the cells are sedimented and the supernatants concentrated by ammonium sulfate precipitation. The proteins in the resuspended pellets are separated by electrophoresis on SDS-polyacrylamide gels. After staining gels with Colloidal Blue™, the 73.9 kDa ExoU band is quantitated by scanning through an imager. The effects of inhibitors on the intensity of the ExoU band may be measured relative to that of untreated controls.

[2] = test system: SPI1 type III protein secretion of SopE'-'Bla by Salmonella enterica; assay: Primary assay: Type III protein secretion of the chimeric SopE'-'Bla polypeptide by Salmonella enterica; format: cell-based; conditions: read-out: SopE IC50(uM)
Source text: Primary assay: Type III protein secretion of the chimeric SopE′-′Bla polypeptide by Salmonella enterica. This procedure is a cell-based assay that measures the type III-dependent secretion by Salmonella enterica of a plasmid-encoded chimeric polypeptide whose synthesis can be regulated, and which is endowed with an enzymatic activity that can be monitored […] by hydrolysis of a substrate that is unable to penetrate into the bacterial cytoplasm within the time constraints of the reaction. Thus, the colorimetric reaction is not influenced by SopE′-′Bla polypeptide in the bacterial cytoplasm. Instead, it effectively measures the amount of polypeptide that has been secreted from the S. enterica cytoplasm to the extracellular medium via type III system protein secretion.
The SopE′-′Bla recombinant polypeptide consists of two functionally distinct domains spliced together. The N-terminus domain is encoded by a polynucleotide region specifying the signal for type III secretion of the SopE polypeptide of S. enterica, an effector of the SPI1 type III protein secretion system. The C-terminus domain of SopE′-′Bla consists of a 263 amino acid peptide sequence that corresponds to the TEM-1 β-lactamase expressed by plasmid pBR322 but without its N-terminal signal sequence. The TEM-1 β-lactamase part of the SopE′-′Bla chimeric polypeptide is used as a reporter enzyme. It is capable of hydrolyzing nitrocefin resulting in a product whose accumulation can be monitored by colorimetric detection. The secretion of the SopE′-′Bla chimeric polypeptide from the cytoplasm to the extracellular medium is dependent on type III protein secretion.
For this procedure, cells grown under conditions known to favor a functional SPI1 secretion system are induced for expression of the SopE′-′Bla protein and grown either in the presence or in the absence of putative inhibitors for determined time. Nitrocefin is then added to the various cultures and its hydrolysis are used for quantitation. An inhibitor of Type III protein secretion is generally a compound that reduces the signal of the enzymatic reaction by decreasing the amount of SopE′-′Bla secreted into the extracellular medium.

| Compound | IC50 [1] [µM] | IC50 [2] [µM] |
| --- | --- | --- |
| Cc1cc(C(=O)N[C@@H](CSCc2ccccc2)C(=O)O)nc(N2CCC(c3ccccc3)CC2)n1 [Compound 2, (R)-3-Benzylsulfanyl-2-{[6-methyl-2-(4-phenylpiperidin-1-yl)pyrimidine-4-carbonyl]amino}propionic acid] | > 100 | 34.2 |
| O=C(N[C@H](Cc1ccc(Cl)cc1)C(=O)O)c1cc(N2CCc3ccccc3C2)nc(Cl)n1 [Compound 5, (R)-2-{[2-Chloro-6-(3,4-dihydro-1H-isoquinolin-2-yl)pyrimidine-4-carbonyl]amino}-3-(4-chlorophenyl)propionic acid] |  | 32.7 |
| O=C(N[C@H](Cc1ccc(Cl)cc1)C(=O)O)c1cc(N2CCc3ccccc3C2)nc(-c2ccc(F)cc2)n1 [Compound 9, (R)-3-(4-Chlorophenyl)-2-{[6-(3,4-dihydro-1H-isoquinolin-2-yl)-2-(4-fluoro-phenyl)Pyrimidine-4-carbonyl]amino}propionic acid] |  | 8 |
| O=C(N[C@@H](CSCc1ccccc1)C(=O)O)c1cc(N2CCCCC2)nc(N2CCC(c3ccccc3)CC2)n1 [Compound 29, (R)-3-Benzylsulfanyl-2-{[2-(4-phenylpiperidin-1-yl)-6-piperidin-1-yl-pyrimidine-4-carbonyl]amino}propionic acid] |  | 3.2 |
| O=C(N[C@H](Cc1ccc(Cl)cc1)C(=O)O)c1cc(N2CCCc3ccccc32)nc(-c2ccc(-c3ccccc3)cc2)n1 [Compound 33, (R)-2-{[2-Biphenyl-4-yl-6-(3,4-dihydro-2H-quinolin-1-yl)pyrimidine-4-carbonyl]amino}-3-(4-chlorophenyl)propionic acid] | 24.4 |  |
| O=C(N[C@H](Cc1ccc(Cl)cc1)C(=O)O)c1cc(N2CCCCC2)nc(-c2ccc(-c3ccccc3)cc2)n1 [Compound 34, (R)-2-[(2-Biphenyl-4-yl-6-piperidin-1-yl-pyrimidine-4-carbonyl)amino]-3-(4-chlorophenyl)propionic acid] | 71 |  |
| CN1CCN(c2nc(C(=O)N[C@@H](COCc3ccccc3)C(=O)O)cc(N3CCN(c4nccc(C(F)(F)F)n4)CC3)n2)CC1 [Compound 45, (S)-3-Benzyloxy-2-({2-(4-methyl-piperazin-1-yl)-6-[4-(4-trifluoromethylpyrimidin-2-yl)piperazin-1-yl]pyrimidine-4-carbonyl}amino)propionic acid] |  | 60.7 |
| CC1CCN(c2nc(C(=O)N[C@@H](CSCc3ccccc3)C(=O)O)cc(N3CCN(c4ccccn4)CC3)n2)CC1 [Compound 64, (R)-3-Benzylsulfanyl-2-{[2-(4-methylpiperidin-1-yl)-6-(^4-pyridin-2-yl-piperazin-1-yl)pyrimidine-4-carbonyl]amino}propionic acid] | 18.9 |  |
| O=C(N[C@@H](COCc1ccccc1)C(=O)O)c1cc(N2CCN(c3ccccn3)CC2)nc(N2CCN(c3ccccn3)CC2)n1 [Compound 65, (S)-3-Benzyloxy-2-{[2,6-bis-(4-pyridin-2-yl-piperazin-1-yl)pyrimidine-4-carbonyl]-amino}propionic acid] | 38.4 |  |
| O=C(N[C@@H](CSCc1ccccc1)C(=O)O)c1cc(N2CCN(c3ccccn3)CC2)nc(N2CCN(c3ccccn3)CC2)n1 [Compound 66, (R)-3-Benzylsulfanyl-2-{[2,6-bis-(4-pyridin-2-yl-piperazin-1-yl)pyrimidine-4-carbonyl]amino}propionic acid] | 52.8 |  |
| O=C(NC(Cc1ccc(Cl)cc1)C(=O)O)c1cc(N2CCN(c3ccccn3)CC2)nc(N2CCN(c3ccccn3)CC2)n1 (stereo not drawn) [Compound 67, 2-{[2,6-Bis-(4-pyridin-2-yl-piperazin-1-yl)pyrimidine-4-carbonyl]amino}-3-(4-chlorophenyl)propionic acid] | 65.6 |  |
| O=C(NC(Cc1ccc(Cl)cc1)C(=O)O)c1cc(N2CCN(c3ccccn3)CC2)nc(-c2ccc([N+](=O)[O-])cc2)n1 (stereo not drawn) [Compound 68, 3-(4-Chlorophenyl)-2-{[2-(4-nitrophenyl)-6-(4-pyridin-2-yl-piperazin-1-yl)-pyrimidine-4-carbonyl]amino}propionic acid] | 21.1 |  |
| CN(C)c1ccc(-c2nc(C(=O)N[C@@H](COCc3ccccc3)C(=O)O)cc(N3CCN(c4ccccn4)CC3)n2)cc1 [Compound 69, (S)-3-Benzyloxy-2-{[2-(4-dimethylaminophenyl)-6-(4-pyridin-2-yl-piperazin-1-yl)-pyrimidine-4-carbonyl]amino}propionic acid] | > 100 |  |
| CN(C)c1ccc(-c2nc(C(=O)NC(Cc3ccc(Cl)cc3)C(=O)O)cc(N3CCN(c4ccccn4)CC3)n2)cc1 (stereo not drawn) [Compound 70, 3-(4-Chlorophenyl)-2-{[2-(4-dimethylaminophenyl)-6-(4-pyridin-2-yl-piperazin-1-yl)pyrimidine-4-carbonyl]amino}propionic acid] | 29.8 |  |
| O=C(N[C@@H](COCc1ccccc1)C(=O)O)c1cc(N2CCN(c3ccccn3)CC2)nc(-c2cccs2)n1 [Compound 71, (S)-3-Benzyloxy-2-{[6-(4-pyridin-2-yl-piperazin-1-yl)-2-thiophen-2-yl-pyrimidine-4-carbonyl]amino}propionic acid] | > 50 |  |
| O=C(N[C@@H](CSCc1ccccc1)C(=O)O)c1cc(N2CCN(c3ccccn3)CC2)nc(-c2ccoc2)n1 [Compound 72, (R)-3-Benzylsulfanyl-2-{[2-furan-3-yl-6-(4-pyridin-2-yl-piperazin-1-yl)pyrimidine-4-carbonyl]amino}propionic acid] | > 50 |  |
| O=C(N[C@@H](COCc1ccccc1)C(=O)O)c1cc(N2CCN(c3ccccn3)CC2)nc(-c2ccoc2)n1 [Compound 73, (S)-3-Benzyloxy-2-{[2-furan-3-yl-6-(4-pyridin-2-yl-piperazin-1-yl)pyrimidine-4-carbonyl]amino}propionic acid] | > 50 |  |
| CC1CCN(c2cc(C(=O)N[C@@H](CSCc3ccccc3)C(=O)O)nc(N3CCN(c4ccccn4)CC3)n2)CC1 [Compound 74, (R)-3-Benzylsulfanyl-2-{[6-(4-methylpiperidin-1-yl)-2-(4-pyridin-2-yl-piperazin-1-yl)pyrimidine-4-carbonyl]amino}propionic acid] | > 50 |  |
| CN1CCN(c2cc(C(=O)N[C@@H](CSCc3ccccc3)C(=O)O)nc(N3CCN(c4ccccn4)CC3)n2)CC1 [Compound 75, (R)-3-Benzylsulfanyl-2-{[6-(4-methyl-piperazin-1-yl)-2-(4-pyridin-2-yl-piperazin-1-yl)pyrimidine-4-carbonyl]amino}propionic acid] | > 100 |  |
| CN1CCN(c2cc(C(=O)N[C@@H](COCc3ccccc3)C(=O)O)nc(N3CCN(c4ccccn4)CC3)n2)CC1 [Compound 76, (S)-3-Benzyloxy-2-{[6-(4-methyl-piperazin-1-yl)-2-(4-pyridin-2-yl-piperazin-1-yl)-pyrimidine-4-carbonyl]amino}propionic acid] | > 50 |  |
| O=C(N[C@@H](CSCc1ccccc1)C(=O)O)c1cc(N2CCC(Cc3ccccc3)CC2)nc(-c2ccc(C(F)(F)F)cc2)n1 [Compound 77, (R)-2-{[6-(4-Benzylpiperidin-1-yl)-2-(4-trifluoromethylphenyl)pyrimidine-4-carbonyl]amino}3-benzylsulfanylpropionic acid] | 92.8 |  |
| O=C(N[C@@H](CSCc1ccccc1)C(=O)O)c1cc(N2CCC(Cc3ccccc3)CC2)nc(-c2ccc(Cl)cc2)n1 [Compound 78, (R)-2-{[6-(4-Benzylpiperidin-1-yl)-2-(4-chlorophenyl)pyrimidine-4-carbonyl]-amino}-3-benzylsulfanylpropionic acid] | 42.4 |  |
| O=C(NC(Cc1ccc(Cl)cc1)C(=O)O)c1cc(N2CCC(Cc3ccccc3)CC2)nc(-c2ccc(Cl)cc2)n1 (stereo not drawn) [Compound 79, 2-{[6-(4-Benzylpiperidin-1-yl)-2-(4-chlorophenyl)pyrimidine-4-carbonyl]amino}-3-(4-chlorophenyl)propionic acid] | 64 |  |
